Measured values reported in US6294542A, “Pyrimidinone compounds, pharmaceutical compositions containing the compounds and the process for preparing the same” (Boryung Pharmaceutical Co. Ltd., priority 1998, dated 2001).

What was measured:
[1] = test system: Angiotensin II-induced pressor response; assay: In vivo Angiotensin II antagonism in conscious normotensive rats; settings: Rattus norvegicus, po; P.O.; conscious normotensive male SD rats; Angiotensin II 0.1 μg/kg; read-out: ID50 (dose of test compound necessary to produce 50% inhibition of Angiotensin II-induced pressor response)
Procedure: The antagonistic activity of the compound (I) against the angiotensin II, which is prepared by the process according to a preferred embodiment of the invention, was evaluated with relation to rats.
In vivo Angiotensin II antagonism in conscious normotensive rats.
Male SD rats (Charles River Japan, 9 weeks, 300-350 g) were anesthetized with pentobarbital at 50 mg/kg i.p. Both the left femoral artery and the right femoral vein were cannulated. A heparin-filled catheter (50U/ml) was tunneled subcutaneously (s.c.) to the dorsal side of the neck and exteriorized.
Rats were permitted to recover overnight from anesthesia and allowed free access to water, but food was withheld.
The next day, the femoral artery catheter was connected to a pressure transducer (COBE 041-500-508, USA) coupled to a polygraph (GRASS Model 7, USA) to monitor arterial blood pressure. After an appropriate equilibration period, Angiotensin II (0.1 μg/kg) was injected in the femoral vein three times during the control period.
Test compounds were then administered orally (p.o.) at a constant volume of 2 ml/kg.
Angiotensin II challenges were repeated at set times thereafter.
ID50 values, the dose of test compound necessary to produce 50% inhibition of Angiotensin II-induced pressor response, were calculated from peak inhibition percentage with several doses of test compound.

[2] = Acute Toxicity Test (oral, mice); format: in vivo; settings: for LD50: mouse, in vivo, po
Procedure: Respective 5 mice of ICR system, which was distributed from Korean Laboratory Animal Center, were bred in a polycarbonate breeding box at a breeding environment of 23±1° C. of temperature, 55±5% of humidity, 10-15 times/hr of evacuation, 12 hr cycle of fluorescent light luminance, and 150-300 Lux of illumination.
After observing the mice for one week of acclimation breeding period, only normal mice were selected for laboratory work. The mice were fed with sterilized feed for laboratory animals, which was made by Cheil Jedang Co.,Ltd, and supplied with purified water to drink.
During the acclimation period, mice, who were evaluated to be healthy, were weighed and divided into groups randomly. Individual identification of laboratory animals was performed by indumentum pigment display and tag display per breeding box.
Establishment of dose was carried out according to a result of preliminary test in such a manner that a maximum dose group for both male and female was set to 5000 mg/kg and azeotropy was set to 1.71. Medium-high, medium and medium-low dose groups were respectively set as follows and a control group was administrated with physiological saline for injection.
Before administration of testing substances, body weight of the laboratory animals was in the range of 24-28 g in case of male and in the range of 19-28 g in case of female, respectively. The laboratory animals were aged 6 weeks.
Preparation of the testing substances was dissolved in physiological saline before administration. Dose was calculated according to the body weight which was measured before administration and dispensed by oral administration to a mouse who was in abrosia for 18 hours before testing.
Observation of clinical symptom such as general change, toxic symptom and mortality was performed for all laboratory animals once an hour during 6 hours after administration on the very administration day, and once a day from the next day to 14th day of administration.
Administration group, who was administered with testing substances, and the control group were weighed on the administration day, first, third, seventh, tenth and fourteenth days from the administration at a predetermined time for all animals who were alive.
After finish of the test, all animals were slightly anesthetized with ether and bleeding-killed. Appearance and internal organs of the animals were examined with naked eye carefully. Animals, who died during the text, were examined in the same manner.

CCCCc1nc(C)c(CC(=S)N2CCSCC2)c(=O)n1Cc1ccc(-c2ccccc2-c2nn[nH]n2)cc1 [Compound 5, 2-n-butyl-5-thiomorpholynothiocarbonylmethyl-6-methyl-3-[[2'-(1H-tetrazol-5-yl)-biphenyl-4-yl]methyl]-pyrimidine-4(3H)-one]
< 3 mg/kg: ED50 [1]

CCCCc1nc(C)c(CC(=S)N2CCCCCCC2)c(=O)n1Cc1ccc(-c2ccccc2-c2nn[nH]n2)cc1 [Compound 4, 2-n-butyl-5-heptamethyleniminothiocarbonyl-methyl-6-methyl-3-[[2'-(1H-tetrazol-5-yl)biphenyl-4-yl]methyl]-pyrimidine-4(3H)-one]
3.1 mg/kg: ED50 [1]

CCCCc1nc(C)c(CC(=S)N(CC)CC)c(=O)n1Cc1ccc(-c2ccccc2-c2nnn[nH]2)cc1 [Compound 3, 2-n-butyl-5-diethylaminothiocarbonylmethyl-6-methyl-3-[[2'-(1H-tetrazol-5-yl)biphenyl-4-yl]methyl]-pyrimidine-4(3H)-one]
< 3 mg/kg: ED50 [1]

CCCCc1nc(C)c(CC(=S)N2CCCCC2)c(=O)n1Cc1ccc(-c2ccccc2-c2nnn[nH]2)cc1 [Compound 7, 2-n-butyl-5-piperidinothiocarbonylmethyl-6-methyl-3-[[2 '-(1H-tetrazol-5-yl)-biphenyl-4-yl]methyl]-pyrimidine-4(3H)-one]
< 3 mg/kg: ED50 [1]

CCCCc1nc(C)c(CC(=S)N2CCC2)c(=O)n1Cc1ccc(-c2ccccc2-c2nn[nH]n2)cc1 [Compound 9, 2-n-butyl-5-azetidinothiocarbonylmethyl-6-methyl-3-[[2'-(1H-tetrazol-5-yl)-biphenyl-4-yl]methyl]-pyrimidine-4 (3H)-one]
1.19 mg/kg: ED50 [1]

CCCCc1nc(C)c(CC(=S)N2CCCC2)c(=O)n1Cc1ccc(-c2ccccc2-c2nnn[nH]2)cc1 [Compound 8, 2-n-butyl-5-pyrrolidinothiocarbonylmethyl-6-methyl-3-[[2'-(1H-tetrazol-5-yl)-biphenyl-4-yl]methyl]-pyrimidine-4(3H)-one]
0/1: Mortality (death number/survival number) ([2]; female, 5000 mg/kg oral, day 1) | Mortality (death number/survival number) ([2]; female, 5000 mg/kg oral, day 2) | Mortality (death number/survival number) ([2]; female, 5000 mg/kg oral, day 3) | Mortality (death number/survival number) ([2]; female, 5000 mg/kg oral, day 7) | Mortality (death number/survival number) ([2]; female, 5000 mg/kg oral, day 14) | Mortality (death number/survival number) ([2]; male, 5000 mg/kg oral, day 14)
3170 mg/kg: LD50 ([2]; male mice)
1/3: Mortality (death number/survival number) ([2]; male, 5000 mg/kg oral, day 1)
4060 mg/kg: LD50 ([2]; female mice)
3/5: Final mortality (death number/total number) ([2]; male, 2924 mg/kg oral) | Mortality (death number/survival number) ([2]; male, 2924 mg/kg oral, day 0)
0/2: Mortality (death number/survival number) ([2]; male, 2924 mg/kg oral, day 1) | Mortality (death number/survival number) ([2]; male, 2924 mg/kg oral, day 2) | Mortality (death number/survival number) ([2]; male, 2924 mg/kg oral, day 3) | Mortality (death number/survival number) ([2]; male, 2924 mg/kg oral, day 7) | Mortality (death number/survival number) ([2]; male, 2924 mg/kg oral, day 14) | Mortality (death number/survival number) ([2]; male, 5000 mg/kg oral, day 2) | Mortality (death number/survival number) ([2]; male, 5000 mg/kg oral, day 3)
0/5: Final mortality (death number/total number) ([2]; female, 1000 mg/kg oral) | Mortality (death number/survival number) ([2]; female, 1000 mg/kg oral, day 0) | Mortality (death number/survival number) ([2]; female, 1000 mg/kg oral, day 1) | Mortality (death number/survival number) ([2]; female, 1000 mg/kg oral, day 2) | Mortality (death number/survival number) ([2]; female, 1000 mg/kg oral, day 3) | Mortality (death number/survival number) ([2]; female, 1000 mg/kg oral, day 7) | Mortality (death number/survival number) ([2]; female, 1000 mg/kg oral, day 14) | Final mortality (death number/total number) ([2]; female, 1710 mg/kg oral) | Mortality (death number/survival number) ([2]; female, 1710 mg/kg oral, day 0) | Mortality (death number/survival number) ([2]; female, 1710 mg/kg oral, day 1) | Mortality (death number/survival number) ([2]; female, 1710 mg/kg oral, day 2) | Mortality (death number/survival number) ([2]; female, 1710 mg/kg oral, day 3) | Mortality (death number/survival number) ([2]; female, 1710 mg/kg oral, day 7) | Mortality (death number/survival number) ([2]; female, 1710 mg/kg oral, day 14) | Final mortality (death number/total number) ([2]; male, 1000 mg/kg oral) | Mortality (death number/survival number) ([2]; male, 1000 mg/kg oral, day 0) | Mortality (death number/survival number) ([2]; male, 1000 mg/kg oral, day 1) | Mortality (death number/survival number) ([2]; male, 1000 mg/kg oral, day 2) | Mortality (death number/survival number) ([2]; male, 1000 mg/kg oral, day 3) | Mortality (death number/survival number) ([2]; male, 1000 mg/kg oral, day 7) | Mortality (death number/survival number) ([2]; male, 1000 mg/kg oral, day 14)
0.93 mg/kg: ED50 [1]
1/2: Mortality (death number/survival number) ([2]; male, 5000 mg/kg oral, day 7)
0/3: Mortality (death number/survival number) ([2]; female, 2924 mg/kg oral, day 1) | Mortality (death number/survival number) ([2]; female, 2924 mg/kg oral, day 2) | Mortality (death number/survival number) ([2]; female, 2924 mg/kg oral, day 3) | Mortality (death number/survival number) ([2]; female, 2924 mg/kg oral, day 7) | Mortality (death number/survival number) ([2]; female, 2924 mg/kg oral, day 14) | Mortality (death number/survival number) ([2]; male, 1710 mg/kg oral, day 1) | Mortality (death number/survival number) ([2]; male, 1710 mg/kg oral, day 2) | Mortality (death number/survival number) ([2]; male, 1710 mg/kg oral, day 3) | Mortality (death number/survival number) ([2]; male, 1710 mg/kg oral, day 7) | Mortality (death number/survival number) ([2]; male, 1710 mg/kg oral, day 14)
4/5: Final mortality (death number/total number) ([2]; female, 5000 mg/kg oral) | Mortality (death number/survival number) ([2]; female, 5000 mg/kg oral, day 0) | Final mortality (death number/total number) ([2]; male, 5000 mg/kg oral)
2/5: Final mortality (death number/total number) ([2]; female, 2924 mg/kg oral) | Mortality (death number/survival number) ([2]; female, 2924 mg/kg oral, day 0) | Final mortality (death number/total number) ([2]; male, 1710 mg/kg oral) | Mortality (death number/survival number) ([2]; male, 1710 mg/kg oral, day 0) | Mortality (death number/survival number) ([2]; male, 5000 mg/kg oral, day 0)

CCCCc1nc(C)c(CC(N)=S)c(=O)n1Cc1ccc(-c2ccccc2-c2nnn[nH]2)cc1 [Compound 1, 2-n-butyl-5-aminothiocarbonylmethyl-6-methyl-3-[[2'-(1H-tetrazol-5-yl)biphenyl-4-yl]methyl]-pyrimidine-4(3H)-one]
> 3 mg/kg: ED50 [1]

CCCCc1nc(C)c(CC(=S)N2CCOCC2)c(=O)n1Cc1ccc(-c2ccccc2-c2nn[nH]n2)cc1 [Compound 6]
< 3 mg/kg: ED50 [1]
